This note sets out measurements from patent US20230172984A1, “CLEARANCE OF SENESCENT CELLS BY ACTIVATION OF iNKT CELLS” (THE REGENTS OF THE UNIVERSITY OF CALIFORNIA, priority 2020, published 2023).

Assay [1] has as its system senescent CD45^− lung cells. As to the kind of experiment: Bleomycin-induced lung injury model, C12FDG assay on lung cells. The class given is in vivo, mouse. On the procedure:
MATERIALS AND METHODS. Mouse husbandry. All procedures involving mice were performed according to the IACUC standards following ethics approval by the animal committee at the University of California, San Francisco. Male C57BL6/J on chow or HFD fed mice. HFD mice were fed a high-fat diet (60% kcal from fat) from 6 weeks until 22 weeks of age. All experiments on HFD mice were performed at 22-24 weeks total age (16-18 weeks on HFD). Age-matched male C57BL6/J mice on standard rodent chow diet were used as controls. For the lung injury model, 10-week-old male C57BL/6J mice were used. The animals were divided into three groups: the control group, the injured group, and the α-GalCer treated group. The animals in the control group received vehicle only (i.p.) on day 10. […] RBCs in cell pellet were lysed by resuspending in 1 mL lysis buffer for 3 min and was neutralized using 10 mL of sterile DMEM medium, centrifuged and the cell pellet resuspended in 1 ml of sterile DMEM containing DNase I. Viability of the cells was analyzed using Vi-Cell XR cell viability analyzer. C12FDG flow cytometry assay. eWAT SVF cells isolated and counted as described above were adjusted to 3×10^6 cells/ml in complete culture media and incubated with 33 μM C12FDG for 1 hr in a 37° C. water bath. […] Samples were analyzed on an Attune acoustic focusing cytometer. […] Data were analyzed with FlowJo (v. 10). […]

The test system of a further assay is iNKT cells in the eWAT. As to the kind of experiment: Flow cytometry of iNKT cells in eWAT SVF of HFD mice (CD1d tetramer). Type of assay: in vivo, mouse. To be noted: 2 μg i.p., vs obese mice treated with vehicle. On the procedure: α-GalCer activation of iNKT cells. iNKT cells were activated in vivo using α-GalCer as described in Peralbo et al., 2006. Decreased frequency and proliferative response of invariant Vα24Vβ11 natural killer T (iNKT) cells in healthy elderly. Biogerontology 7, 483-492. Briefly, HFD mice were i.p. injected with 200 μl of a 10 μg/ml α-GalCer solution (2 μg total) made up in 5.6% Sucrose, 5% Tween-20. On day 3 or 4 post-injection, mice were euthanized for various experiments, as indicated.
Flow cytometry of iNKT cells. eWAT SVF cells were stained with PBS57 (α-GalCer-analog) loaded onto CD1d-PE tetramers prepared by the NIH Tetramer Core and anti-CD3-APC. As a negative control for subtracting background staining in eWAT SVF, samples were also stained with unloaded CD1d-PE tetramer and anti-CD3-APC. Live cells were enumerated with DAPI, and flow cytometry was performed on an Attune acoustic focusing cytometer. Gates were set to identify: cells (FSC-A/SSC-A), forward scatter singlets (FSC-H/FSC-A), side-scatter singlets (SSC-H/SSC-A), live cells (DAPI^−), and the PBS57::CD1d-PE^+/CD3-APC^+ subpopulation. The percent of unloaded CD1d-PE^+/CD3-APC^+ cells were subtracted from the loaded tetramer stained populations to eliminate the percent of background stained cells. For lung, 1×10^6 cells from each sample were used to quantify iNKT cells. […]
Background: In flow cytometry, cells or beads pass a laser one at a time.

For the compound `CCCCCCCCCCCCCCCCCCCCCCCCCC(=O)N[C@@H](CO[C@H]1O[C@H](CO)[C@H](O)[C@H](O)[C@H]1O)[C@H](O)[C@H](O)CCCCCCCCCCCCCC` [GalCer, alpha-Galactosylceramide], the “number of CD45^− C12FDG^+ lung cells” value in assay [1] (bleomycin 3 U/kg day 0, α-GalCer 2 μg/mouse i.p. day 10, lungs harvested day 14, FIG. 4A) is on record as “decreased the number of such CD45^− C12FDG^+ lung cells to levels on par with those in the lungs of uninjured control mice”. Besides, the “epithelial and mesenchymal senescent cells in lung” value in assay [1] (bleomycin-injured mice treated with GalCer) is “both epithelial and mesenchymal senescent cells were affected”. The “iNKT cell numbers in eWAT” value in the assay on iNKT cells in the eWAT is listed as “dramatically increase iNKT cell numbers”.
